From ChEMBL document CHEMBL3611987, “Design and synthesis of conformationally constrained hydroxylated 4-phenyl-2-aryl chromenopyridines as novel and selective topoisomerase II-targeted antiproliferative agents” (Bioorg Med Chem, 2015)

Tests used:
DU-145 = test: Cytotoxicity against human DU145 cells after 2 days by CCK8 assay; type: functional, cell-based; conditions: DU-145, 48 h
HCT-15 = test: Cytotoxicity against human HCT15 cells after 2 days by CCK8 assay; type: functional, cell-based; conditions: HCT-15, 48 h
[1] = molecular target: DNA topoisomerase 2-alpha (Homo sapiens) (UniProt P11388); test: Inhibition of human DNA topoisomerase 2alpha assessed as relaxation of supercoiled pBR322 DNA at 100 uM after 30 mins using ethidium bromide staining by agarose gel electrophoresis
T47D = test: Cytotoxicity against human T47D cells after 2 days by CCK8 assay; type: functional, cell-based; conditions: 48 h
[2] = Cytotoxicity against human MCF10A cells after 2 days by CCK8 assay; type: cell-based; conditions: MCF-10A, 48 h
[3] = molecular target: T1, DNA topoisomerase 1 (Homo sapiens) (UniProt P11387); test: Inhibition of human recombinant DNA topoisomerase 1 assessed as relaxation of supercoiled pBR322 DNA at 100 uM after 30 mins using ethidium bromide staining by agarose gel electrophoresis
T1 sequence (whole entry): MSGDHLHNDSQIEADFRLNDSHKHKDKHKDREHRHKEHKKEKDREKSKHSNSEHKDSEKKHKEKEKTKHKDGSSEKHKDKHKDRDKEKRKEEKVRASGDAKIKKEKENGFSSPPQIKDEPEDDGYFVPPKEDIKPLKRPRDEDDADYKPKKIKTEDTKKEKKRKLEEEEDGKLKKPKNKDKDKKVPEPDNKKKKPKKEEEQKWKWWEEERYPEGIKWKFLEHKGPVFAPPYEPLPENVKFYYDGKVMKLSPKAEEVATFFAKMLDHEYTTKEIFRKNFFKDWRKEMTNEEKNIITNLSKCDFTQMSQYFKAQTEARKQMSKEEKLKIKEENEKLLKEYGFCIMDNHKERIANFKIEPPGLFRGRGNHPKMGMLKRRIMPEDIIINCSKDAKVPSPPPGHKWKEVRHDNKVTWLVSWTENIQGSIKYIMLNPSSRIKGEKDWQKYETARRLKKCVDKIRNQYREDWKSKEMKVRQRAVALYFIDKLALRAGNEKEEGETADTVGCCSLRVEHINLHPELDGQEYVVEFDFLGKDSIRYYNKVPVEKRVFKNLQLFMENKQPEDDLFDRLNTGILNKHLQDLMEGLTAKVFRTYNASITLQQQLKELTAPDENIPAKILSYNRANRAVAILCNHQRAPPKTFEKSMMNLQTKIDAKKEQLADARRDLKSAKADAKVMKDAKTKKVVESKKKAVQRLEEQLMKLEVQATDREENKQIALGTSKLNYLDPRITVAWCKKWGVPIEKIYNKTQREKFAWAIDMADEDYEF

[4] = molecular target: DNA topoisomerase 2-alpha (Homo sapiens) (UniProt P11388); test: Inhibition of human DNA topoisomerase 2alpha assessed as relaxation of supercoiled pBR322 DNA at 20 uM after 30 mins using ethidium bromide staining by agarose gel electrophoresis
[5] = molecular target: T1, DNA topoisomerase 1 (Homo sapiens); test: Inhibition of human recombinant DNA topoisomerase 1 assessed as relaxation of supercoiled pBR322 DNA at 20 uM after 30 mins using ethidium bromide staining by agarose gel electrophoresis

DNA topoisomerase 2-alpha (Homo sapiens), sequence (P11388 whole entry): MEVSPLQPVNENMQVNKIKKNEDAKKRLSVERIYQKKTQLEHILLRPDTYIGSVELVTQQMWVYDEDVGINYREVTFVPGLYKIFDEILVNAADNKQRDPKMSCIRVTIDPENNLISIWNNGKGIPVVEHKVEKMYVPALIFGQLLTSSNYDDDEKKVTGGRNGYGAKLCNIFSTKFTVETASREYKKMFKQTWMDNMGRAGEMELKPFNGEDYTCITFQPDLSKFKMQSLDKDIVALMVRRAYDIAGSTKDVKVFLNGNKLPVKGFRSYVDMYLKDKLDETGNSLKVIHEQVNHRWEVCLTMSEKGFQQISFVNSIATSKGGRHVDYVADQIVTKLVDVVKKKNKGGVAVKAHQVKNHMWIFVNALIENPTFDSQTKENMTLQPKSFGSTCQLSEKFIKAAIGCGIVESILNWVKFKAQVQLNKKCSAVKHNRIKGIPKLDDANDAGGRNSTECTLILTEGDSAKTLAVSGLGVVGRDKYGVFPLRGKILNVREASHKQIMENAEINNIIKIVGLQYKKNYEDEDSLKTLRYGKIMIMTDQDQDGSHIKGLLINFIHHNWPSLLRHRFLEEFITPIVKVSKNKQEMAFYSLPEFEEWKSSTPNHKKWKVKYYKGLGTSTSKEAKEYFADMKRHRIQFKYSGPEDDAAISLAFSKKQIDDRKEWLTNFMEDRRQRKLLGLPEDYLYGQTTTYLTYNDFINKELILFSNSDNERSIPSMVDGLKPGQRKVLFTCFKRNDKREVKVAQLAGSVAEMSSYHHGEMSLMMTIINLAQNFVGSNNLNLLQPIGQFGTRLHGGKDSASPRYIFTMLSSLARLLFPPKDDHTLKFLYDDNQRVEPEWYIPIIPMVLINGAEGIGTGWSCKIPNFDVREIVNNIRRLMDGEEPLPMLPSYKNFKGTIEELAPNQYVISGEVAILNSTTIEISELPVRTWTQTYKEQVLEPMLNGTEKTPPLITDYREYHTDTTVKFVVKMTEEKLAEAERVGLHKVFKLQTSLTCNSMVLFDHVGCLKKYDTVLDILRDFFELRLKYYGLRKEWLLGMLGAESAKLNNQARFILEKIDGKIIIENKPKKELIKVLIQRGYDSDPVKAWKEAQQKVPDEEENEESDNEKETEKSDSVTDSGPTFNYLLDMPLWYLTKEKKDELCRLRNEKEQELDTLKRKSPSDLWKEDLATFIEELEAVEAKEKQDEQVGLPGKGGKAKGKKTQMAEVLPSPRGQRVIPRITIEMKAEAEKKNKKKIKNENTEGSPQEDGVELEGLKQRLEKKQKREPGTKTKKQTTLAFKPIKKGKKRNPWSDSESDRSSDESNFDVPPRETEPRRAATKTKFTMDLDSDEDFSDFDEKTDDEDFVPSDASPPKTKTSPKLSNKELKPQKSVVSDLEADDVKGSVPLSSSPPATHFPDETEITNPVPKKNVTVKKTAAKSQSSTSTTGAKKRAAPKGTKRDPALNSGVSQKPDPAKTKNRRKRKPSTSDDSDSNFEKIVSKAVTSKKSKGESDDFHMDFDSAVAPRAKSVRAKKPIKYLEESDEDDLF

| Compound | IC50 (DU-145) [nM] | IC50 (HCT-15) [nM] | inhibition [1] [%] | IC50 (T47D) [nM] | IC50 [2] [nM] | inhibition [3] [%] | inhibition [4] [%] | inhibition [5] [%] |
| --- | --- | --- | --- | --- | --- | --- | --- | --- |
| Oc1cccc(-c2cc(-c3ccco3)nc3c2COc2ccccc2-3)c1 | 3100 | 4770 | 84.9 | 3590 | 8800 | 1.4 | 0 | – |
| Oc1cccc(-c2cc(-c3cccs3)nc3c2COc2ccccc2-3)c1 | 860 | 3170 | 99 | 2240 | 6440 | 6.6 | 41.2 | – |
| Oc1ccccc1-c1cc(-c2cccs2)nc2c1COc1ccccc1-2 | 5970 | 1940 | 95.7 | 2720 | 5640 | 3.5 | 4.8 | – |
| CC[C@@]1(O)C(=O)OCc2c1cc1n(c2=O)Cc2cc3ccccc3nc2-1 [CAMPTOTHECIN] | – | 300 | – | 80 | 970 | – | – | – |
| COc1cccc2c1C(=O)c1c(O)c3c(c(O)c1C2=O)C[C@@](O)(C(=O)CO)C[C@@H]3O[C@H]1C[C@H](N)[C@H](O)[C@H](C)O1 [DOXORUBICIN] | 950 | – | – | 1880 | 1230 | – | – | – |
| Oc1ccccc1-c1cc(-c2ccsc2)nc2c1COc1ccccc1-2 | 740 | 3170 | 100 | 2740 | 7170 | 3.3 | 29.7 | – |
| Oc1ccc(-c2cc(-c3cccc(O)c3)c3c(n2)-c2ccccc2OC3)cc1 | 2060 | 2980 | 93 | 2370 | 4640 | 5.3 | 1.8 | – |
| Oc1ccc(-c2cc(-c3ccco3)nc3c2COc2ccccc2-3)cc1 | 4450 | 1230 | 95.6 | 850 | 6880 | 0.5 | 6.8 | – |
| Oc1ccccc1-c1cc(-c2ccccc2)nc2c1COc1ccccc1-2 | 5010 | 3470 | 84.7 | 3820 | 8200 | 3.6 | 10 | – |
| Oc1cccc(-c2cc(-c3cccc(O)c3)c3c(n2)-c2ccccc2OC3)c1 | 1580 | 4110 | 93.3 | 1770 | 5810 | 4.3 | 1.9 | – |
| Oc1ccc(-c2cc(-c3ccccc3O)nc3c2COc2ccccc2-3)cc1 | > 50000 | 1560 | 89.3 | 1290 | 24200 | 3.8 | 63.2 | – |
| Oc1cccc(-c2cc(-c3ccsc3)nc3c2COc2ccccc2-3)c1 | 3000 | 1220 | 100 | 1180 | 7260 | 68.6 | 31.7 | 0 |
| Oc1ccccc1-c1cc(-c2ccco2)nc2c1COc1ccccc1-2 | 2450 | 2010 | 91.5 | 2980 | 7980 | 3.9 | 17 | – |
| Oc1ccc(-c2cc(-c3ccccc3)nc3c2COc2ccccc2-3)cc1 | 1560 | 15100 | 94.1 | 1350 | 6350 | 2.1 | 16.1 | – |
| Oc1ccc(-c2cc(-c3ccsc3)nc3c2COc2ccccc2-3)cc1 | 390 | 1660 | 100 | 1900 | 5830 | 0 | 18.1 | – |
| Oc1cccc(-c2cc(-c3ccccc3O)c3c(n2)-c2ccccc2OC3)c1 | 630 | 1010 | 92.1 | 2170 | 3420 | 3.3 | 4.8 | – |
| Oc1ccc(-c2cc(-c3ccccc3O)c3c(n2)-c2ccccc2OC3)cc1 | 1950 | 1660 | 93.6 | 2090 | 2740 | 7.6 | 8 | – |
| Oc1ccc(-c2cc(-c3cccs3)nc3c2COc2ccccc2-3)cc1 | 830 | 1520 | 91.7 | 1210 | 6240 | 1 | 25.8 | – |
| Oc1ccc(-c2cc(-c3ccc(O)cc3)c3c(n2)-c2ccccc2OC3)cc1 | 3800 | 690 | 97.2 | 780 | 1900 | 2.8 | 10.3 | – |
| COc1cc([C@@H]2c3cc4c(cc3[C@@H](O[C@@H]3O[C@@H]5CO[C@@H](C)O[C@H]5[C@H](O)[C@H]3O)[C@H]3COC(=O)[C@H]23)OCO4)cc(OC)c1O [ETOPOSIDE] | 13100 | 2600 | – | 940 | 10100 | – | – | – |
| Oc1ccccc1-c1cc(-c2ccccc2O)c2c(n1)-c1ccccc1OC2 | 4690 | 3580 | 78 | 2760 | 8760 | 2.4 | 47.9 | – |
| Oc1cccc(-c2cc(-c3ccccc3O)nc3c2COc2ccccc2-3)c1 | 6370 | 2110 | 88.6 | 3420 | 4610 | 2.4 | 33.7 | – |
| c1ccc(-c2cc(-c3ccccc3)c3c(n2)-c2ccccc2OC3)cc1 | – | – | – | 14200 | 6580 | 0 | – | – |
| Oc1cccc(-c2cc(-c3ccccc3)nc3c2COc2ccccc2-3)c1 | 2330 | 3030 | 94.8 | 760 | 8520 | 1.5 | 10.9 | – |
| Oc1ccc(-c2cc(-c3cccc(O)c3)nc3c2COc2ccccc2-3)cc1 | 810 | 550 | 93.5 | 670 | 2420 | 1.8 | 7.6 | – |
